Measured values: patent US7307097B2, “Chemical compounds” (SmithKline Beechman Corporation, priority 2001, dated 2007)

Legend:
[1] = test system: Human umbilical cord endothelial cells (HUVEC); assay: VEGF-driven cellular proliferation assay: BrdU incorporation assay (VEGF-C); assay type: cell-based; settings: read-out: VEGF-C pIC50 (converted)
Method: VEGF-driven Cellular Proliferation Assay: BrdU Incorporation Assay (VEGF-C)
Human umbilical cord endothelial cells (HUVEC, Clonetics, CC2519) are passaged in Type I collagen-coated 100-mm petridishes in EGM-MV medium (Clonetics, CC3125) at 37 C. in a humidified 5% CO2, 95% air incubator. (HUVEC passaged more than 6 times in vitro are discarded and not subjected to assaying.) The cells are harvested using trypsin/EDTA, counted using a haemocytometer and plated at 5000 cells/well in a Type I-collagen coated 96-well plate (Becton Dickinson, 354407) in M199 medium (Gibco BRL, 12340-030) containing 5% FBS (Hyclone, A 1115-L) and gentamicin (at 50 ug/ml, Gibco BRL). After incubation overnight at 37° C., the media are replaced with 100 ul of M199 serum-free medium containing compounds at various concentrations with 0.6% DMSO and gentamicin. The compounds are diluted in serum-free M199 medium from 10 mM stock solutions prepared in 100% DMSO. […] The incorporation of BrdU into the proliferating HUVEC are analyzed using BrdU Cell Proliferation ELISA (Roche Molecular Biochemicals, 1647229) according to the manufacturer's protocols. The optical density at 450 nm is measured with a multilabel counter (ARVO SX, Wallac). The percent inhibition of cell growth is calculated relative to blank control wells. […]

Recombinant GST-Tie2 = Recombinant GST-Tie2 (Homo sapiens, UniProt Q02763); assay: Tie2 fluorescence polarization kinase activity assay (TIE2-FP); assay type: biochemical; settings: 200 μM ATP, activated enzyme; read-out: TIE2-FP pIC50 (converted)
Chain of Recombinant GST-Tie2 (Q02763 23-1124): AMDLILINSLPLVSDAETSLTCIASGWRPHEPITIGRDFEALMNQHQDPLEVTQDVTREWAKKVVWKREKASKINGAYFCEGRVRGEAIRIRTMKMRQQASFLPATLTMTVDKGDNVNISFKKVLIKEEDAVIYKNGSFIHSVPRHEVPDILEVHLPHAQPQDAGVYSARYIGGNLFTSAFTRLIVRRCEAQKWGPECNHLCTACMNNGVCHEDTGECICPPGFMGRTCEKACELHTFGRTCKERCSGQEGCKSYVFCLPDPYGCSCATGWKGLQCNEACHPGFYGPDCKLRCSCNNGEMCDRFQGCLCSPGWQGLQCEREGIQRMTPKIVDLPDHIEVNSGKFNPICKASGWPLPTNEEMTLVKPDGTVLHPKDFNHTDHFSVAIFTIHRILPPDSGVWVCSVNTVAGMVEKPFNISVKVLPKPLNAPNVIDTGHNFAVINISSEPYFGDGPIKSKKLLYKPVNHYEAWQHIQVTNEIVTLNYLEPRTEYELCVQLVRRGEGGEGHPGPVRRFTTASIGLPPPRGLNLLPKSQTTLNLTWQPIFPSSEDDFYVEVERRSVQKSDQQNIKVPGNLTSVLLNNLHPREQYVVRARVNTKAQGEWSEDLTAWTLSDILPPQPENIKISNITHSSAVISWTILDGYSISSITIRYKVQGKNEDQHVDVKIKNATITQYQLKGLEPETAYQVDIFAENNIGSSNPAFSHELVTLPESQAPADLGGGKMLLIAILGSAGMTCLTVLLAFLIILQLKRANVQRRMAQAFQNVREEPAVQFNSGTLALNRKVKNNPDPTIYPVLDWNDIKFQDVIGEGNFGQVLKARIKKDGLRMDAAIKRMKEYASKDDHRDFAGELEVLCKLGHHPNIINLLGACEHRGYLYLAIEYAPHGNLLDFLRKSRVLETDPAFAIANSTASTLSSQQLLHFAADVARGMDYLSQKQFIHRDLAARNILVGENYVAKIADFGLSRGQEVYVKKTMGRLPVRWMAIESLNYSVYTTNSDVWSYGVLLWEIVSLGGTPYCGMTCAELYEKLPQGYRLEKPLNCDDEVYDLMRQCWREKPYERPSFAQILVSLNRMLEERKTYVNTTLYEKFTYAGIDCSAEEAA
Method: Tie2 Fluorescence Polarization Kinase Activity Assay (TIE2-FP) Activation of Recombinant Tie2 Activation: Recombinant GST-Tie2 is activated by incubating the enzyme in 20 mM Tris-HCl, pH7.5, 12 mM MgCl2, 100 mM NaCl, 20 μM sodium vanidate, 1 mM DTT and 300 μM ATP at room temperature for 2 hours. The activation mixture is then passed through a NAP-25 desalting column (Pharmacia Biotech cat. no. 17-0852-02) to remove the free ATP. The activated enzyme is stored as aliquots at−80° C. in 20mM Tris-HCl, pH7.5 and 100 mM NaCl. Assay Conditions: The final assay conditions are 50 mM HEPES, pH7.5, 5% DMSO (when screening compounds), 200 μM ATP, 5mM MgCl2, 1 mM DTT, 50 μM sodium vanidate, 1 nM activated enzyme, and 200 μM peptide. IC50's of compounds are measured under subsaturating ATP (200 μM) and varing concentrations of activated Tie2 and peptide substrate (RFWKYEFWR-OH; MW 1873 Da, TFA salt). Panvera Anti-phosphotyrosine antibody (Cat#P2840) and PTK Green Tracer (Cat#P2842) are used to detect the phosphorylated peptide. Polarization is measured on a TECAN Polarion in 138-second cycles for 30 minutes at room temperature. IC50's are then determined from the % polarization using normal calculation methods. The IC50 values are converted to pIC50 values, i.e.,−log IC50 in Molar concentration.

GST-VEGFR2 = biological target: T1, GST-VEGFR2 (Homo sapiens, UniProt P35968); assay: VEGF-R2 enzyme assay (VEGFR-2-E2), LANCE method; assay type: biochemical; settings: 75 uM ATP
T1 construct: recombinant constructs of the intracellular domains of human TIE2 tagged by GST; made in house
T1 sequence (P35968 786-1356 limits assumed): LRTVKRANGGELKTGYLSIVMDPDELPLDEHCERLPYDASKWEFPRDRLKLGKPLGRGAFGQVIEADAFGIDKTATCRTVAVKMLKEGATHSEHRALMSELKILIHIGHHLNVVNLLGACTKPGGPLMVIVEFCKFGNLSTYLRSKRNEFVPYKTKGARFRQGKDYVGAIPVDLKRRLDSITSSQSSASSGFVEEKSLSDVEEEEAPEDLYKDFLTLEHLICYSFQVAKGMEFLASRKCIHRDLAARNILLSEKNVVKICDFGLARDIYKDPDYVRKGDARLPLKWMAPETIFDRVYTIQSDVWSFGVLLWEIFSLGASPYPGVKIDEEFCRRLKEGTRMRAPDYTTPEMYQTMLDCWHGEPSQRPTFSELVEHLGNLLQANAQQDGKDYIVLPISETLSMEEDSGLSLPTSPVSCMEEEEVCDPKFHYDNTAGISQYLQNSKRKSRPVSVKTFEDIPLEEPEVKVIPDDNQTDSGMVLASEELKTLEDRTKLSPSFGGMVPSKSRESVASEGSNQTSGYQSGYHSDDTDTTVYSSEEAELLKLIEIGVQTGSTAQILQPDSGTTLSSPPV
Excerpt: VEGF-R2 Enzyme Assay (VEGFR-2-E2)
The VEGF enzyme assay uses the LANCE method (Wallac) and GST-VEGFR2, baculovirus expressed recombinant constructs of the intracellular domains of […] tagged by GST. The method measures the ability of the purified enzymes to catalyse the transfer of the γ-phosphate from ATP onto tyrosine residues in a biotinylated synthetic peptide, (biotin-aminohexyl-EEEEYFELVAKKKK-NH2). This peptide phosphorylation is detected using the following procedure: GST-VEGFR2 is incubated for 40-60 mins at room temperature with 75 uM ATP, 5 mM MgCl2, 0.1 mM DTT, 0.1 mg/mL BSA and the test compound (diluted from a 10 mM stock in DMSO for desired concentration) in 100 mM HEPES buffer. The reaction is stopped by the addition of EDTA (final concentration 50 mM). Streptavidin linked-APC (allophycocyanin, Molecular Probe) and Europium-labeled anti-phosphorylated tyrosine antibody (Wallac) are then added at the final concentration of 15 nM and 1 nM, respectively. The APC signal is measured using an ARVO multilabel counter (Wallac Berthold, Japan). The percent inhibition of activity is calculated relative to blank control wells. The concentration of test compound that inhibits 50% of activity (IC50) is interpolated using nonlinear regression (Levernberg-Marquardt) and the equation, y=Vmax (1−x/(K+x))+Y2, where “K” is equal to the IC50. […]

[2] = biological target: T2, GST-TIE2 (intracellular domains of human TIE2) (Homo sapiens, UniProt Q02763); assay: TIE-2 enzyme assay (TIE-2-E2); assay type: biochemical
T2 construct: made in house
T2 sequence (Q02763 762-1104): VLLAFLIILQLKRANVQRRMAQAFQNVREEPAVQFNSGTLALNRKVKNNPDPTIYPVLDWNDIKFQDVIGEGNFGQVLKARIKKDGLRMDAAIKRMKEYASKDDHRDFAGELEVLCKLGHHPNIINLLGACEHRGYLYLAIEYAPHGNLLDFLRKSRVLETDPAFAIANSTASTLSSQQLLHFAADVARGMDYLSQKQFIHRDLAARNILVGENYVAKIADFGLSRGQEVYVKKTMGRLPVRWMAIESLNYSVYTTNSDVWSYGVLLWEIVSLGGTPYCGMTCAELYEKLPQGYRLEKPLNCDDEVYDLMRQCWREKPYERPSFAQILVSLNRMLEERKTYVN
Excerpt: TIE-2 Enzyme Assay (TIE2-E)
The TIE-2 enzyme assay uses the LANCE method (Wallac) and GST-TIE2, baculovirus expressed recombinant constructs of the intracellular domains of human TIE2 (amino acids 762-1104, GenBank Accession # L06139) tagged by GST). The method measures the ability of the purified enzymes to catalyse the transfer of the γ-phosphate from ATP onto tyrosine residues in a biotinylated synthetic peptide, D1-15 (biotin-C6-LEARLVAYEGWVAGKKKamide). This peptide phosphorylation is detected using the following procedure: for enzyme preactivation, GST-TIE2 is incubated for 30 mins at room temperature with 2 mM ATP, 5 mM MgCl2 and 12.5 mM DTT in 22.5 mM HEPES buffer (pH7.4). Preactivated GST-TIE2 is incubated for 30 mins at room temperature in 96 well plates with 1 uM D1-15 peptide, 80 uM ATP, 10 mM MgCl2, 0.1 mg/ml BSA and the test compound (diluted from a 10 mM stock in DMSO, final DMSO concentration is 2.4%) in 1 mM HEPES (pH7.4). The reaction is stopped by the addition of EDTA (final concentration 45 mM). Streptavidin linked-APC (allophycocyanin, Molecular Probe) and Europium-labeled anti-phosphorylated tyrosine antibody (Wallac) are then added at the final concentration of 17 ug/well and 2.1 ug/well, respectively. The APC signal is measured using an ARVO multilabel counter. […] The percent inhibition of activity is calculated relative to blank control wells. […]

[3] = biological target: T3, human VEGFR3 catalytic domain (Homo sapiens, UniProt P35916, H890Q); assay: VEGFR-3 homogenous time-resolved fluorescence assay (VEGFR-3-HTRF); assay type: biochemical; settings: 75 μM ATP, 1 nM enzyme
T3 construct: made in house; host or cells: Sf9 insect cells (baculovirus, pFastBac1)
T3 sequence (P35916 with tags, fused parts or gaps isoform P35916-1 H890Q): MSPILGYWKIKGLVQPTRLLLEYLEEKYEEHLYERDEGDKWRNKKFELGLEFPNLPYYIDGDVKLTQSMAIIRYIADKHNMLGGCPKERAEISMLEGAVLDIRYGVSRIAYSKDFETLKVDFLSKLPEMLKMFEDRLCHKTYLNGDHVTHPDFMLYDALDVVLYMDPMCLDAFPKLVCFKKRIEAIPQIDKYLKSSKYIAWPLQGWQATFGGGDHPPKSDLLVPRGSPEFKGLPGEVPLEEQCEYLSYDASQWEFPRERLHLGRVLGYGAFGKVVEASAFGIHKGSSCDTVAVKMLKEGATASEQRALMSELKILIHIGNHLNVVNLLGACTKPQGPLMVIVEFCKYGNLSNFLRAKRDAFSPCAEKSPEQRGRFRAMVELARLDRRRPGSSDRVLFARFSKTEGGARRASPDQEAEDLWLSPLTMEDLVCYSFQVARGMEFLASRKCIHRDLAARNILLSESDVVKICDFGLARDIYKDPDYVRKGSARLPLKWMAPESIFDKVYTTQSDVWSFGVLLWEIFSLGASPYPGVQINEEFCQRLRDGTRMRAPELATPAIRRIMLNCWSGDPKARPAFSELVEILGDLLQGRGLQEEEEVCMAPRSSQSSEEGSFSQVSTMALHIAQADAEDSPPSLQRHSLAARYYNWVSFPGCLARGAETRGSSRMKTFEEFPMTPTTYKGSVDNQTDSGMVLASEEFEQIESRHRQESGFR
Excerpt: VEGFR-3—Homogenous Time-resolved Fluorescence Assay (VEGFR-3-HTRF)
This assay assesses Vascular Endothelial Growth Factor 3 (VEGFR3) tyrosine kinase inhibitory activity in substrate phosphorylation assays. The assay examines the ability of small molecule organic compounds to inhibit the tyrosine phosphorylation of a peptide substrate.
The substrate phosphorylation assays use the VEGFR3 catalytic domain, which is expressed in Sf. 9 insect cells as an amino-terminal GST-tagged fusion protein. The catalytic domain of human VEGFR3 (AA residues #819-1298 based upon GenBank Accession #XM003852) is cloned by PCR from human Placenta Marathon Ready cDNA (Clontech). The PCR product is subcloned into pFastBac1 vector containing an N-terminal GST tag. […]
200 nM VEGFR3 enzyme is activated for 45 minutes at room temperature by incubating the enzyme in buffer containing 100 mM HEPES (pH7.2), 75 μM ATP, 0.3 mM DTT, 0.1 mg/mL BSA, and 10 mM MgCl2. […] Assay plates are left unsealed and are counted in a Wallac Multilabel Counter 1420 (PerkinElmer).
The data for dose responses are plotted as % Control calculated with the data reduction formula 100*(U1-C2)/(C1-C2) versus concentration of compound where U is the unknown value, C1 is the average control value obtained for DMSO, and C2 is the average control value obtained for 0.1M EDTA. […]

With `CC(C)(C)n1nc(-c2ccc(NC(=O)Nc3cc(C(F)(F)F)ccc3F)cc2)c(C(N)=O)c1N` [Example 1, 5-Amino-1-tert-butyl-3-{4-[3-(2-fluoro-5-trifluoromethyl-phenyl)-ureido]-phenyl}-1H-pyrazole-4-carboxylic acid amide] the IC50 [1] was under 100 nM and the IC50 (Recombinant GST-Tie2) was under 100 nM.

`CC(C)(C)c1cc(NC(=O)Nc2ccc(-c3nn(C(C)(C)C)c(N)c3C(N)=O)cc2)no1` [Example 35, 5-Amino-1-tert-butyl-3-{4-[3-(5-tert-butyl-isoxazol-3-yl)-ureido]-phenyl}-1H-pyrazole-4-carboxylic acid amide] gave an IC50 (GST-VEGFR2; read-out: VEGFR-2-E2 pIC50 (converted)) of under 100 nM, an IC50 ([2]; read-out: TIE-2-E2 pIC50 (converted)) of under 100 nM and an IC50 ([3]; read-out: VEGFR-3-HTRF pIC50 (converted)) of under 100 nM.

With “N,N-Dimethylamino-{4-[3-(fluoro-trifluoromethyl-phenyl)-ureido]-phenyl}-methyl-1H-pyrazole-4-carboxylic acid amide [Example 34]” the “VEGFR-2-E2 pIC50” value (GST-VEGFR2) was “+ (+ = pIC50 of 5.0-6.0)”, the “TIE-2-E2 pIC50” value [2] was “+++ (+++ = pIC50 > 7.0)” and the “VEGFR-3-HTRF pIC50” value [3] was “+ (+ = pIC50 of 5.0-6.0)”.
